Data published in publication PMC5423501 (The Oncologist, 2017).
“Also recorded” adds a separate entry of the source. Where two headings read alike, the source gives them in different places.

Legend:
[1] = Steady-state plasma pharmacokinetics, cycle 1 day 8; type: in vivo, human
IL‐12p40 = assay: Serum factors, V-Plex assay, baseline vs end of cycle 1; type: in vivo, human; conditions: baseline to end of cycle 1; p = .002
[2] = system: patients with HIV and HCC; conditions: 27 patients with HIV and HCC, 400 mg sorafenib twice daily, retrospective; cited from earlier work
[3] = system: patients with Kaposi sarcoma; conditions: in vivo
Kaposi sarcoma = assay: KS response assessment; type: in vivo, human
patients with HCC = conditions: phase III trial in HCC; cited from earlier work
bFGF = assay: Serum factors, V-Plex assay, baseline vs end of cycle 1; type: in vivo, human; conditions: baseline to end of cycle 1; p = .018
[4] = system: patients with HIV and cancer; conditions: cited from earlier work

## CNC(=O)c1cc(Oc2ccc(NC(=O)Nc3ccc(Cl)c(C(F)(F)F)c3)cc2)cc[n+]1[O-] [Sorafenib N-Oxide, Sorafenib N‐oxide]
[1]; trend, p = .08
  decrease of AUCTAU of sorafenib-N-oxide in patients receiving ritonavir: 3.8 fold

## CNC(=O)c1cc(Oc2ccc(NC(=O)Nc3ccc(Cl)c(C(F)(F)F)c3)cc2)ccn1 [Sorafenib]
IL‐12p40
  change in serum IL-12p40: statistically significant decrease
[2]
  diarrhea, grade 3–4 AE: 15%
  hypertension, grade 3–4 AE: 11%
  palmar-plantar erythrodysesthesia syndrome, grade 3–4 AE: 15%
[3]
  patients with grade 3 toxicities that did not meet DLT criteria: five
Kaposi sarcoma; 2/7, 95% CI 4%–71%
  ORR in patients evaluable for response: 29%
Kaposi sarcoma; 2/10, 95% CI 3%–56%
  ORR in all patients: 20%
Kaposi sarcoma; range 1–5, 21-day cycles
  Median duration of SD: 4 cycles
[1]; 200 mg dose at steady state
  CMAX and AUC0-12h of sorafenib compared with literature: within reported ranges
[1]; cohort on ritonavir vs not on ritonavir
  effect of ritonavir on steady-state AUCTAU (exposure) of sorafenib: not significantly affected by ritonavir; also recorded: only modestly affected
Patients with HCC
  diarrhea, grade 3–4 AE: 8%
  hypertension, grade 3–4 AE: 2%
  palmar-plantar erythrodysesthesia syndrome, grade 3–4 AE: 8%
bFGF
  change in serum bFGF: potential trend towards decreased bFGF

## CCN(CC)CCNC(=O)c1c(C)[nH]c(/C=C2\C(=O)Nc3ccc(F)cc32)c1C [sunitinib]
[4]; HIV patients not taking ritonavir
  tolerability: tolerated standard dosing
[4]; patients receiving ritonavir
  tolerability: higher toxicities at lower doses
[4]; patients with HIV and cancer
  effect of ritonavir on sunitinib and active metabolite: decreases in the sunitinib active metabolite but not the parent drug
